The source of these data is patent US20250368629A1, “FLAVONOID COMPOUNDS AND METHODS AND MATERIALS FOR USING FLAVONOID COMPOUNDS TO TREAT FIBROTIC CONDITIONS” (Mayo Foundation for Medical Education and Research, priority 2022, published 2025).

Data set [1] in a line: Microsomal stability, mouse liver derived microsomes. Type of data set: in vitro ADME. On the procedure:
The microsomal stability of F-4N was also assessed (FIG. 28). Compounds were incubated with human or mouse liver derived microsomes. The percent of F-4N recovered was analyzed by LC-MS. Verapamil was used as a control for a rapidly degraded compound. Analysis was performed by Cyprotex (Framingham, MA).

In data set [2] the test system is low passage proliferating fibroblasts. The data set is described as follows: Apoptosis of low passage proliferating lung fibroblasts (cleaved caspase-3, DAPI). Conditions: low passage proliferating fibroblasts from the same donor, 96 hours, 6-point dose-response, N=3. Type of data set: cell-based, human. On the procedure: Human adult lung fibroblasts were replicatively passaged until senescence (confirmed by RNA and senescence associated beta galactosidase staining). In a parallel experiment, low passage proliferating fibroblasts from the same donor were compared. Cells were plated into 96-well plates and treated with the indicated compound (6-point dose-response) and incubated for 96 hours. Cells were then fixed using 4% PFA, permeabilized using 0.25% triton x-100, and nuclear stained using a primary antibody for cleaved caspase-3, secondary fluorescence conjugated antibody, and DAPI. Cells were then imaged using a 4× objective on a Cytation5 microscope and cell counts were quantified using automated software (Biotek Gen5). Data shown are the EC50 values calculated for each compounds efficacy to induce apoptosis in senescence vs. proliferating lung fibroblasts, from the calculated dose-response curves, N=3 independent experiments.

The test system of data set [3] is Human adult lung fibroblasts (passage 3). The data set is described as follows: Fibroblast activation (TGFβ, alpha-smooth muscle actin). The following applies: Homo sapiens, Fibroblast; +2 ng/mL TGFβ, 96 hours, alpha-smooth muscle actin intensity. Format: cell-based. As to the method: Human adult lung fibroblasts (passage 3) were plated into 96-well plates and treated with the indicated compound (6-point dose-response) +2 ng/mL TGFβ to stimulated fibroblast activation. Cells were incubated for 96 hours, fixed using 4% PFA, permeabilized using 0.25% triton x-100, and stained using a primary antibody recognizing alpha-smooth muscle actin and a secondary fluorescent conjugated antibody, and DAPI. Cells were then imaged using a 4× objective on a Cytation5 microscope and alpha-smooth muscle actin intensity was quantified using automated software (Biotek Gen5). Data shown are the IC50 values for each compounds efficacy at reducing expression of alpha-smooth muscle actin, calculated from the calculated dose-response curves, N=3 independent.

Data set [4] deals with sections of lung tissue from IPF patient transplant lungs. The data set is described as follows: IPF patient-derived organotypic ex vivo culture. Type of data set: cell-based, human. Conditions: 3 μM, 4 days ex vivo, N=3 patient samples. On the procedure:
An IPF patient-derived organotypic ex vivo culture was used to determine efficacy of F-4N. Sections of lung tissue (about […]) were cut from IPF patient transplant lungs and cultured for 4 days ex vivo with DMSO (0.1%) or F-4N (3 μM). Lung tissue slices were collected, RNA was isolated, and qPCR analysis was performed (FIG. 31). Media was also collected for ELISA analysis for IL-6 (FIG. 31B). N=3 patient samples.

In the case of `O=c1c(O)c(-c2ccc(OCc3ccncc3)cc2)oc2ccccc12` [F—4N], the “microsomal stability: half-life and clearance rate” value in data set [1] was “in line with many clinically approved orally administered drugs”. Moreover, the “Proliferating fibroblast apoptosis EC50” value in data set [2] was “inactive”. In data set [3], this compound displayed an EC50 of 1800 nM. In data set [4], the “expression of fibrotic markers (qPCR)” value is given as “reduced expression” and the “expression of mature alveolar epithelial cell markers (qPCR)” value is recorded as “enhanced expression”.

Usually EC50 stands for the concentration needed to bring the measured effect to its halfway point. A high value points to a less potent agent.
